Measured values as given in article PMC6934184, “Selective DNA-PKcs inhibition extends the therapeutic index of localized radiotherapy and chemotherapy” (The Journal of Clinical Investigation, 2019).

Biological target: T1, STK33 (Homo sapiens, UniProt Q9BYT3)
T1 construct: purchased Thermo Fisher Scientific (Life Technologies) SelectScreen
Test: SelectScreen LanthaScreen
Assay type: binding
Settings: read-out: % displacement
Method in brief: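 NU5455 was profiled across the SelectScreen Broad panel of kinase activity and binding assays. Z'LYTE reactions such as CSF1R ran at apparent Km ATP, while the Adapta CAMK1 assay used ATP listed as 10. Values are given as percent.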

T1 sequence (Q9BYT3 whole entry): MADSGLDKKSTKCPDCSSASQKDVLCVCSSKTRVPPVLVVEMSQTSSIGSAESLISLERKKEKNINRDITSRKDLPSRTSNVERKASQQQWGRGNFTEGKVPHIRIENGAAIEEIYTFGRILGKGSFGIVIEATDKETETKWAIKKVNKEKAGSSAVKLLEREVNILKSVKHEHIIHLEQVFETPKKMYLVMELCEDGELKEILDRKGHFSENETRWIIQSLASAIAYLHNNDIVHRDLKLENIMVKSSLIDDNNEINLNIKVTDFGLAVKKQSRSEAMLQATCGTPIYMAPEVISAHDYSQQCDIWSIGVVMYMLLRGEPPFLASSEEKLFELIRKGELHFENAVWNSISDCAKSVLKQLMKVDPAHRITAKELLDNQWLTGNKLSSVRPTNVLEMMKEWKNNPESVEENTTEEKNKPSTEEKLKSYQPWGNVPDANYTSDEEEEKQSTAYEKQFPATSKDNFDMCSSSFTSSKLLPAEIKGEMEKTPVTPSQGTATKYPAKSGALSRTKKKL

For `CN(C(=O)CN1CCOCC1)c1ccc2sc3c(-c4cccc5c(=O)cc(N6CC7CCC(C6)O7)oc45)cccc3c2c1` [NU5455], the inhibition at 1 µM was 4.7%.
